Target: PDE V (Homo sapiens, UniProt O76074)
Experiment: PDE V inhibition (PDE V IC50)
Format: biochemical
Conditions: not given

| IC50 [nM] | SMILES |
| --- | --- |
| 5 to 10 | CCn1c(=O)c2c(nc(N[C@@H]3CCC[C@H]3O)n2Cc2ccc(O)c(Cl)c2)n(CCO)c1=O [Compound 115] |
| 15 to 100 | CCn1c(=O)c2c(nc(NC3CCCCC3)n2Cc2cccc(Cl)c2)n(CC)c1=O [Compound 120] |
| 15 to 100 | CCCn1c(=O)n(CC)c(=O)c2c1nc(NC1CCCCC1)n2Cc1ccc(S(C)(=O)=O)cc1 [Compound 121] |
| 10 to 15 | CCn1c(=O)c2c(nc(N[C@H]3CC[C@H](O)CC3)n2Cc2ccc(OC)c(Br)c2)n(CC)c1=O [Compound 125] |
| 15 to 100 | CCn1c(=O)c2c(nc(N[C@@H]3CCC[C@H]3O)n2Cc2ccc(S(N)(=O)=O)cc2)n(CC)c1=O [Compound 126] |
| 15 to 100 | CCn1c(=O)c2c(nc(N[C@@H]3CCC[C@H]3O)n2Cc2cc(Br)c3c(c2)CCO3)n(CCO)c1=O [Compound 128] |
| 15 to 100 | Cc1cccc(Cn2c(NC3CCCCC3)nc3c2c(=O)n(C)c(=O)n3C)c1 [Compound 131] |
| 5 to 10 | Cc1ccc(Cn2c(NC3CCCCC3)nc3c2c(=O)n(C)c(=O)n3C)cc1 [Compound 132] |
| 10 to 15 | Cn1c(=O)c2c(nc(NC3CCCCC3)n2Cc2ccccc2F)n(C)c1=O [Compound 136] |
| 15 to 100 | Cn1c(=O)c2c(nc(NC3CCCCC3)n2Cc2cccc(F)c2)n(C)c1=O [Compound 137] |
| 15 to 100 | Cn1c(=O)c2c(nc(NC3CCCCC3)n2Cc2ccc(F)cc2)n(C)c1=O [Compound 138] |
| 15 to 100 | COc1cccc(Cn2c(NC3CCCCC3)nc3c2c(=O)n(C)c(=O)n3C)c1 [Compound 141] |
| ≤ 5 | Cn1c(=O)c2c(nc(NC3CCCCC3)n2Cc2ccc3c(c2)OCO3)n(C)c1=O [Compound 142] |
| 10 to 15 | COc1ccc(Cn2c(NC3CCCCC3)nc3c2c(=O)n(C)c(=O)n3C)cc1C [Compound 144] |
| 5 to 10 | COc1ccc(Cn2c(NC3CCCCC3)nc3c2c(=O)n(C)c(=O)n3C)cc1Cl [Compound 159] |
| 10 to 15 | Cn1c(=O)c2c(nc(NC3CCCCC3)n2Cc2cc3c(cc2Cl)OCO3)n(C)c1=O [Compound 160] |
| 10 to 15 | Cn1c(=O)c2c(nc(NC3CCCCC3)n2Cc2ccc(O)c(Cl)c2)n(C)c1=O [Compound 161] |
| 15 to 100 | CCn1c(=O)c2c(nc(NC3CCCCC3)n2Cc2ccccc2F)n(CC)c1=O [Compound 165] |
| 15 to 100 | CCn1c(=O)c2c(nc(NC3CCCCC3)n2Cc2ccc(OC)c(C)c2)n(CC)c1=O [Compound 166] |
| 5 to 10 | CCCn1c(=O)n(CC)c(=O)c2c1nc(NC1CCCCC1)n2Cc1ccc(OC)c(Cl)c1 [Compound 171] |

| IC50 [nM] | SMILES |
| --- | --- |
| 5 to 10 | CCCn1c(=O)n(CC)c(=O)c2c1nc(NC1CCCCC1)n2Cc1ccc(O)c(Cl)c1 [Compound 172] |
| 15 to 100 | CCCn1c(=O)n(CC)c(=O)c2c1nc(NC1CCCCC1)n2Cc1ccccc1F [Compound 173] |
| 5 to 10 | CCCn1c(=O)n(CC)c(=O)c2c1nc(NC1CCCCC1)n2Cc1ccc2c(c1)OCO2 [Compound 175] |
| 15 to 100 | CCCn1c(=O)n(CC)c(=O)c2c1nc(NC1CCCCC1)n2Cc1ccc(OC)c(C)c1 [Compound 176] |
| ≤ 5 | CCCn1c(=O)n(CC)c(=O)c2c1nc(NC1CCCCC1)n2Cc1cccc(O)c1 [Compound 177] |
| ≤ 5 | CCCn1c(=O)n(CC)c(=O)c2c1nc(NC1CCCCC1)n2Cc1ccc(O)c(C)c1 [Compound 178] |
| ≤ 5 | CCn1c(=O)c2c(nc(NC3CCCCC3)n2Cc2ccc(S(N)(=O)=O)c(Cl)c2)n(CC)c1=O [Compound 179] |
| 5 to 10 | CCn1c(=O)c2c(nc(NC3CCCCC3)n2Cc2ccc(S(N)(=O)=O)c(Br)c2)n(CC)c1=O [Compound 180] |
| 15 to 100 | CCn1c(=O)c2c(nc(N[C@@H]3CCC[C@H]3O)n2Cc2ccc(S(N)(=O)=O)c(Cl)c2)n(CC)c1=O [Compound 181] |
| 15 to 100 | CCn1c(=O)c2c(nc(NC3CCCCC3)n2Cc2ccc(S(N)(=O)=O)cc2)n(CCO)c1=O [Compound 182] |
| 5 to 10 | CCn1c(=O)c2c(nc(NC3CCCCC3)n2Cc2ccc(S(N)(=O)=O)c(Cl)c2)n(CCO)c1=O [Compound 183] |
| 15 to 100 | CCn1c(=O)c2c(nc(NC3CCCCC3)n2Cc2ccc(S(N)(=O)=O)c(Br)c2)n(CCO)c1=O [Compound 184] |
| 15 to 100 | CCn1c(=O)c2c(nc(N[C@@H]3CCCC[C@H]3O)n2Cc2ccc(OC)c(Br)c2)n(CCO)c1=O [Compound 185] |
| 5 to 10 | CCn1c(=O)c2c(nc(NC3CCOCC3)n2Cc2ccc(S(N)(=O)=O)c(Br)c2)n(CC)c1=O [Compound 190] |
| ≤ 5 | CCn1c(=O)c2c(nc(NC3CCOCC3)n2Cc2ccc(S(N)(=O)=O)c(Cl)c2)n(CC)c1=O [Compound 191] |
| 15 to 100 | CCn1c(=O)c2c(nc(NC3CCS(=O)(=O)CC3)n2Cc2ccc(OC)c(Cl)c2)n(CC)c1=O [Compound 193] |
| 15 to 100 | CCn1c(=O)c2c(nc(NC3CCS(=O)(=O)CC3)n2Cc2ccc(OC)c(Br)c2)n(CC)c1=O [Compound 194] |
| ≤ 5 | CCn1c(=O)c2c(nc(NC3CCSCC3)n2Cc2ccc(OC)c(Cl)c2)n(CC)c1=O [Compound 197] |
| ≤ 5 | CCn1c(=O)c2c(nc(NC3CCSCC3)n2Cc2ccc(OC)c(Br)c2)n(CC)c1=O [Compound 198] |
| 5 to 10 | CCn1c(=O)c2c(nc(NC3CCC(F)(F)CC3)n2Cc2ccc(OC)c(Br)c2)n(CC)c1=O [Compound 199] |

Target: T1, type V phosphodiesterase (Homo sapiens, UniProt O76074)
T1 construct: endogenous in cells; host or cells: vasculature of patients with heart failure (in vivo)
Experiment: not given
Conditions: patients with heart failure, acute; cited from earlier work

| SMILES | endothelium dependent vasodilation |
| --- | --- |
| CCCc1nn(C)c2c(=O)[nH]c(-c3cc(S(=O)(=O)N4CCN(C)CC4)ccc3OCC)nc12 [Sildenafil] | acutely enhance endothelium dependent vasodilation |

Target: T2, ETA receptor (Homo sapiens, UniProt P25101)
T2 sequence (P25101 21-427): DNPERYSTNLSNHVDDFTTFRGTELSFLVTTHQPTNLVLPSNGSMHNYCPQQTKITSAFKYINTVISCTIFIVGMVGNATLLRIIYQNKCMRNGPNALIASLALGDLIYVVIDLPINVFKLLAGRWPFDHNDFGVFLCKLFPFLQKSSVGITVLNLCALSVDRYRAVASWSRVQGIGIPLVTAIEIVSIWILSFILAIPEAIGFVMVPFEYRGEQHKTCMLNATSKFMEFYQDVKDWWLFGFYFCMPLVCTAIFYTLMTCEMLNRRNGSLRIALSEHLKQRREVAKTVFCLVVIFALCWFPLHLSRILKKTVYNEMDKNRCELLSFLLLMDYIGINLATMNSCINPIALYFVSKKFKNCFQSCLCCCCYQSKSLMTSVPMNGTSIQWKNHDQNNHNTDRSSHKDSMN
Experiment: not given
Conditions: among the ETA receptor antagonists; cited from earlier work

| SMILES | selectivity over ETB |
| --- | --- |
| Cc1cc2c(cc1CC(=O)c1sccc1S(=O)(=O)Nc1onc(C)c1Cl)OCO2 [sitaxsentan] | particularly selective over ETB |

Reference: US20070037831A1, “Methods of using PDE 5 inhibitors for the treatment of congestive heart failure” (priority 2004, published 2007)
